Molecular target: T1, hERG (Homo sapiens, UniProt Q12809)
T1 construct: host or cells: CHO-K1
Experiment: hERG Potassium Channel Assay, Qube APC
Type: cell-based
Settings: Antagonist mode; CHO-hERG; test compound
Protocol: Where presented, IC50 values were determined by a non-linear, least squares regression analysis.
Recombinant HEK-293 cells stably transfected with human NavL.5 cDNA, recombinant HEK293 cell line expressing the human Cavl.2 (L-type voltage gated calcium channel, hCavl.2 alC/02a/a281, and recombinant CHO-K1 cells stably transfected with human hERG cDNA were used separately in each of these assays.
Ion Channels tested were Eurofins Panel Part Number: CPROFullQB2DR Voltage-Gated Sodium: HEK-Nav1.5 (Peak), HEK-Nav1.5 (Late, Antagonist) Voltage-Gated Potassium: HEK-Kv4.3/KChIP2, CHO-hERG, CHO-KCNQ1/minK Voltage-Gated Calcium: HEK-Cav1.2 Inward-Rectifying Voltage-Gated Potassium: HEK-Kir2.1.
hERG Potassium Channel Assay—Qube APC After whole cell configuration is achieved, the cells are held at −80 mV. Cells are held at this voltage for 50 ms to measure the leak current, which is subtracted from the tail current on-line. The cells are depolarized to +40 mV for 500 ms and then to −80 mV over a 100 ms ramp to elicit the hERG tail current. This paradigm is delivered once every 8s to monitor the current amplitude.

T1 sequence (Q12809 whole entry): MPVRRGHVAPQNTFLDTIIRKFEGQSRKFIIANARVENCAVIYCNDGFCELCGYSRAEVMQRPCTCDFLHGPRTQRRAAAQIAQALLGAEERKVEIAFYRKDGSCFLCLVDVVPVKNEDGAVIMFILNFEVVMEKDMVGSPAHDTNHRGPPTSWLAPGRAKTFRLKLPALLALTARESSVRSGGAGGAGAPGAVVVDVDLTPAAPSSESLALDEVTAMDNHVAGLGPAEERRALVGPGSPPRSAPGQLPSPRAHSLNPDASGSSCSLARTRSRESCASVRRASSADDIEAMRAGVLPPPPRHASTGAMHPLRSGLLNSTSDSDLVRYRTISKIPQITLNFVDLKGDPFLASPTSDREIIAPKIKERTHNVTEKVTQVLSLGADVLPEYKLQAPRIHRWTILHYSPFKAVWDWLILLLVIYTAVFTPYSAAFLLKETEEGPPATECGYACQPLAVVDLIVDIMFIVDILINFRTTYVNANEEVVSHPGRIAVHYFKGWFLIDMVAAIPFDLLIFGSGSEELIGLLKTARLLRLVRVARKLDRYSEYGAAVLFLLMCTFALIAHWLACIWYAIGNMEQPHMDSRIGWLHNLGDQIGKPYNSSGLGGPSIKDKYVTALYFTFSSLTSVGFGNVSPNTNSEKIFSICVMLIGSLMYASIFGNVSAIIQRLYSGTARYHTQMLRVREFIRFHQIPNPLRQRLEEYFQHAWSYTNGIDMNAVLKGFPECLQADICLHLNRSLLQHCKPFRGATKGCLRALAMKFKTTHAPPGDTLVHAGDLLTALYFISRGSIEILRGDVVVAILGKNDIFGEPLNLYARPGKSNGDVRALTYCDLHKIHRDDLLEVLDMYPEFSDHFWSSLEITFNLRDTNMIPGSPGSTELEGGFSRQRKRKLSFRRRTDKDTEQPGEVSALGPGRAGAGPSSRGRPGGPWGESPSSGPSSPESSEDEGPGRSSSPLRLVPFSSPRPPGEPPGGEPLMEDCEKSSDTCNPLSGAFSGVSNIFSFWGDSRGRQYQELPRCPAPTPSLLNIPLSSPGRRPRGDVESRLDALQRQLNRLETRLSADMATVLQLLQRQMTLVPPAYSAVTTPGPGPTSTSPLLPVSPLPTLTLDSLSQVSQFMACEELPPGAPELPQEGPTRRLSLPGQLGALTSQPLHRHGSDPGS

Row | SMILES | Estimated IC50
1 | CN[C@@H](C)C(=O)c1ccc2c(c1)OCO2 [(S)-methylone] | N/C (N/C indicates observed mean inhibition was <25%)
2 | CN[C@H](C)C(=O)c1ccc2c(c1)OCO2 [(R)-methylone] | N/C (N/C indicates observed mean inhibition was <25%)
